Patent US11834440B2, “Beta-lactam derivatives for the treatment of diseases” (Insilico Medicine IP Limited, priority 2021, dated 2023)
pIC50: −log10 of the molar value.

The molecules below were run against QPCTL (Homo sapiens (Human), UniProt Q9NXS2) (assay: QPCTL inhibition, SensoLyte Green Glutaminyl Cyclase Activity Assay). Details: 0.8 nM 2x enzyme solution, 45 min at 37° C., 50 mM Tris pH 8.0, 1% DMSO.
Type: biochemical
Method: Preparation of working solution: 2×Glutaminyl Cyclase substrate was diluted in assay buffer to […]. 2×enzyme solution and QPCTL was diluted in assay buffer to 0.8 nM. Glutaminyl Cyclase Developer was diluted in assay buffer to 1×(containing 10 mM 1-Benzyl-Imidazole). Serial dilution of test compounds was performed in DMSO. The final DMSO concentration in 100 μl reaction was 1%. The assay buffer was 50 mM Tris, pH 8.0, 0.01% BSA.
Procedure: 50 μL of 2×Glutaminyl Cyclase substrate solution was added into the assay plate followed by 50 μL of 2×enzyme solution. The plate was centrifuged for 1 min at 1000 rmp. Next the plate was incubated for 45 minutes at 37° C. This was followed by the additional of 50 μL of the prepared Glutaminyl Cyclase developer and incubated for additional 30 min at 37° C. Results were read on SpectraMax Paradigm detecting with emission at Ex/Em=490 nm/520 nm.
A Z′ value was calculated for each assay plate. The Z′ value must be >0.5 or the plate was disqualified. […] Results were calculated using GraphPad Prism 7 software is used for IC50 determination.

Chain of QPCTL (Q9NXS2 whole entry, species assumed): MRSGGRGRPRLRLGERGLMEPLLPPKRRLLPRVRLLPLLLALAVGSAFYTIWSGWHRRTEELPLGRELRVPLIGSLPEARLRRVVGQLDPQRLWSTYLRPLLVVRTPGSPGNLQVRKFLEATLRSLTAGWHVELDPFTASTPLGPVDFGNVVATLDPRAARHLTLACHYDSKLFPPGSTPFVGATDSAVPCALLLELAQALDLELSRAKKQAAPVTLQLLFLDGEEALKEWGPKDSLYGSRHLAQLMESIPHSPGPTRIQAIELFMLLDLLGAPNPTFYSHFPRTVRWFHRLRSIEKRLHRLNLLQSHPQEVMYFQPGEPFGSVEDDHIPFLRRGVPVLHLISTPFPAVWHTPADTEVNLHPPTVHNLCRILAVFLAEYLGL

SMILES	pIC50
C[C@@H]1C(=O)N(c2ccc3[nH]cnc3c2)[C@@H]1c1c(F)cc(-c2cnn(C(F)F)c2)cc1F (single isomer, unassigned) [Compound 17A]	6.00 to 7.60
C[C@H]1C(=O)N(c2ccc3[nH]cnc3c2)[C@H]1c1c(F)cc(N2CCC(F)(F)CC2)cc1F (single isomer, unassigned) [Compound 30B]	7.60 to 8.70
O=C1[C@H](C2CC2)[C@H](c2c(F)cc(-n3cnc(C(F)(F)F)c3)cc2F)N1c1ccc2[nH]cnc2c1 (single isomer, unassigned) [Compound 61B]	> 8.70
C[C@H]1C(=O)N(c2ccc3[nH]cnc3c2)[C@H]1c1c(F)cc(-c2cnn(C(F)F)c2)cc1F (single isomer, unassigned) [Compound 17B]	> 8.70
O=C1[C@@H](C2CC2)[C@@H](c2ccc(-c3cnn(C(F)(F)F)c3)cc2C(F)(F)F)N1c1ccc2[nH]cnc2c1 (single isomer, unassigned) [Compound 76A]	> 8.70
C[C@H]1C(=O)N(c2ccc3[nH]cnc3c2)[C@H]1c1c(F)cc(OCCC(F)F)cc1F (single isomer, unassigned) [Compound 7B]	> 8.70
O=C1[C@H](C2CC2)[C@H](c2c(F)cc(-c3ccn(C(F)(F)F)n3)cc2F)N1c1ccc2[nH]cnc2c1 (single isomer, unassigned) [Compound 47B]	> 8.70
Cc1nc(-n2cnc(C(F)(F)F)c2)ccc1[C@H]1[C@@H](C2CC2)C(=O)N1c1ccc2[nH]cnc2c1 (single isomer, unassigned) [Compound 72B]	> 8.70
O=C1[C@@H](O)[C@H](c2c(F)cc(-c3cnn(C(F)F)c3)cc2F)N1c1ccc2[nH]cnc2c1 (racemic) [Compound 25TR]	7.60 to 8.70
O=C1[C@H](C2CC2)[C@H](c2c(F)cc(-c3cn(C(F)(F)F)cn3)cc2F)N1c1ccc2[nH]cnc2c1 (single isomer, unassigned) [Compound 49B]	7.60 to 8.70
Cc1ccc(-c2ccc([C@H]3[C@@H](C4CC4)C(=O)N3c3ccc4[nH]cnc4c3)c(C)n2)nn1 (single isomer, unassigned) [Compound 71B]	> 8.70
Cc1nc(-c2ccc(C(F)(F)F)nn2)ccc1[C@@H]1[C@H](C2CC2)C(=O)N1c1ccc2[nH]cnc2c1 (single isomer, unassigned) [Compound 70A]	6.00 to 7.60
O=C1[C@@H](C2CC2)[C@@H](c2c(F)cc(-c3cnccn3)cc2F)N1c1ccc2[nH]cnc2c1 [Compound 53A]	< 6.00
C=C1C(=O)N(c2ccc3[nH]cnc3c2)C1c1c(F)cc(OCCC(F)F)cc1F (racemic) [Compound 22, (racemic)-1-(1H-benzo[d]imidazol-5-yl)-4-(4-(3,3-difluoropropoxy)-2,6-difluorophenyl)-3-methyleneazetidin-2-one]	> 8.70
